Earlier results, collected in paper PMC5729432, “A Phase 1 study of ARQ 087, an oral pan-FGFR inhibitor in patients with advanced solid tumours” (British Journal of Cancer, 2017).

Tests used:
[1] = system: patients with advanced solid tumours; set-up: method as in Andre et al, 2013b; Saka et al, 2017; conditions: ref Andre et al, 2013b; Saka et al, 2017
patients = system: patients; set-up: method as in Nogova et al, 2017; conditions: at the RP2D; ref Nogova et al, 2017
[2] = system: patients with advanced solid tumors; set-up: method as in Tabernero et al, 2015; conditions: ref Tabernero et al, 2015

SMILES: COc1cc(CCc2cc(NC(=O)c3ccc(N4CC(C)NC(C)C4)cc3)n[nH]2)cc(OC)c1 (stereo not shown) [AZD3547]
- common treatment-related AEs [1]: fatigue, mucositis, nausea, CSR, and hyperphosphataemia

SMILES: CCN1CCN(c2ccc(Nc3cc(N(C)C(=O)Nc4c(Cl)c(OC)cc(OC)c4Cl)ncn3)cc2)CC1 [BGJ398]
- patients requiring dose adjustments or interruptions for hyperphosphataemia (patients): 50%

SMILES: COc1cc(OC)cc(N(CCNC(C)C)c2ccc3ncc(-c4cnn(C)c4)nc3c2)c1 [JNJ-42756493]
- AE asthenia [2]: 55%
- AE constipation [2]: 34%
- AE decreased appetite [2]: 32%
- AE dry mouth [2]: 45%
- AE hyperphosphataemia [2]: 65%
- AE nail toxicity [2]: 35%
- dose interruptions for hyperphosphataemia [2]: 31%
- dose modifications for hyperphosphataemia [2]: 8%
